Measured values from PubChem BioAssay (NCI).
“And” between values parts separate entries of the source, which are not always exact repeats. Equal entries are not always repeated.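 Cells were grown in 96-well plates and exposed to each compound for 48 hours at five concentrations; endpoints were interpolated linearly between bracketing concentrations, or set to the highest concentration if not reached. Here, GI50 denotes the concentration required for 50% inhibition of growth. TGI is the concentration that stops growth completely.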

Legend:
Test in all cases: growth of human tumour cells (NCI), 48 h
A498 renal = tested on: A498 renal
COLO 205 colon = tested on: COLO 205 colon
HOP-62 NSCLC = tested on: HOP-62 NSCLC
IGROV1 ovarian = tested on: IGROV1 ovarian
MOLT-4 leukemia = tested on: MOLT-4 leukemia
NCI-H460 lung = tested on: NCI-H460 lung
OVCAR-4 ovarian = tested on: OVCAR-4 ovarian
RPMI-8226 leukemia = tested on: RPMI-8226 leukemia
SK-MEL-28 melanoma = tested on: SK-MEL-28 melanoma
NCI-H226 lung = tested on: NCI-H226 lung

SMILES	TGI (A498 renal) [µM]	TGI (COLO 205 colon)	TGI (HOP-62 NSCLC)	TGI (IGROV1 ovarian) [µM]	TGI (MOLT-4 leukemia)	TGI (NCI-H460 lung)	TGI (OVCAR-4 ovarian)	TGI (RPMI-8226 leukemia) [µM]	TGI (SK-MEL-28 melanoma) [µM]	TGI (NCI-H226 lung)	GI50 (A498 renal)	GI50 (MOLT-4 leukemia)	GI50 (NCI-H226 lung) [µM]	GI50 (NCI-H460 lung) [µM]	GI50 (OVCAR-4 ovarian)	GI50 (RPMI-8226 leukemia)	GI50 (SK-MEL-28 melanoma) [µM]	GI50 (COLO 205 colon) [µM]	GI50 (HOP-62 NSCLC) [µM]	GI50 (IGROV1 ovarian) [µM]
NC(N)=NS(=O)(=O)c1ccc(NC(=O)c2ccc(Cl)c3c(Nc4ccc(S(=O)(=O)N=C(N)N)cc4)c4ccccc4nc23)cc1	> 100	> 100 µM	> 100 µM	> 100	> 100 µM	> 100 µM	> 100 µM	> 100	> 100	–	–	–	–	–	–	–	–	–	–	–
CC(C)c1cccc2sc(NC(=O)C(=O)CC(=O)c3ccc(F)cc3)nc12	> 100	> 100 µM	> 100 µM	> 100	–	> 100 µM	> 100 µM	> 100	> 100	> 100 µM	–	–	–	–	–	–	–	–	–	–
CC(=O)N1C(=O)C(=O)c2cc(Cl)ccc21	> 100	> 100 µM	–	> 100	> 100 µM	> 100 µM	> 100 µM	> 100	> 100	> 100 µM	–	–	–	–	–	–	–	–	–	–
CC1=C(CC/C(C)=C/CCC2(C)CCC([C@H](C)C(=O)O)OO2)C(C)(C)CCC1 (stereo partly drawn) (tested in a mixture with another compound)	–	> 100 µM	> 100 µM	–	–	> 100 µM	> 100 µM	–	> 100	> 100 µM	–	–	–	–	–	–	–	–	–	–
CCN(CC)CCNc1ccc(CO)c2sc3ccccc3c(=O)c12	–	3 µM and 13.9 µM and 18 µM	26 µM [middle of 4 runs]	–	14.1 µM [middle of 4 runs]	11 µM and 15.1 µM and 12.2 µM	18.9 µM [middle of 4 runs]	–	–	4.48 µM and 44.8 µM and 26.1 µM	1.26 µM and 6.98 µM and 3.61 µM	3.14 µM and 3.32 µM	1.74	3.44	2.49 µM and 7.63 µM	2.51 µM and 1.59 µM	2.29	–	–	–
C[C@]1(O)CC(=O)[C@]2(O)C3=C(C=C[C@]2(O)C1)C(=O)c1c(O)cccc1C3=O	25.9	0.584 µM	42.6 µM	–	3.98 µM	23.8 µM	2.79 µM	5.65	4.25	3.69 µM	13 µM	1.12 µM	1.69	5.15	1.44 µM	1.64 µM	2.11	0.229	15.6	–
CCC1N2CCCCC2[C@@H]2c3[nH]c4ccccc4c3CCN12 (stereo partly drawn)	> 100	> 100 µM	> 100 µM	> 100	> 100 µM	> 100 µM	> 100 µM	> 100	> 100	–	–	–	–	–	–	–	–	–	–	–
Cn1c(-c2c(N)n(Cc3ccc(Cl)cc3)c3nc(C#N)c(C#N)nc23)nc2ccccc21	–	16.4 µM	> 50 µM	7.71	–	25.7 µM	18.6 µM	> 50	13.9	–	–	–	–	2.7	3.89 µM	1.73 µM	2.86	3.13	11.7	1.54
COc1cc2c(C#N)n3c(c2cc1OC)C(=O)C(c1ccccc1)Oc1ccccc1-3 (stereo not drawn)	9.15	–	> 100 µM	> 100	> 100 µM	–	> 100 µM	–	> 100	> 100 µM	1.85 µM	5.37 µM	2.9	–	2.89 µM	–	> 100	–	3.64	7.41
CC(=O)C1C(=O)C(=O)N(c2ccc(Cl)cc2C)C1=O (stereo not drawn)	> 100	> 100 µM	> 100 µM	> 100	> 100 µM	> 100 µM	> 100 µM	–	> 100	–	–	–	–	–	–	–	–	–	–	–
COc1ccc(OC)c(-c2cn3nc(-c4c[nH]c5ccc(Br)cc45)sc3n2)c1	24.6	–	13.3 µM	11.5	–	4.17 µM	3.8 µM	20.4	11.7	39.8 µM	10.2 µM	–	10.3	2.04	1.8 µM	3.19 µM	3.29	–	2.7	2.27
NC(CCc1nc(-c2ccccc2)cs1)C(=O)O (stereo not drawn)	> 100	> 100 µM	–	> 100	> 100 µM	> 100 µM	–	> 100	> 100	> 100 µM	–	–	–	–	–	–	–	–	–	–
CN1NC(c2ccccc2)=C(C#N)C(=O)CC1c1ccccc1Cl (stereo not drawn)	–	> 100 µM	94.1 µM	–	> 100 µM	> 100 µM	> 100 µM	> 100	> 100	> 100 µM	–	–	–	–	–	–	–	–	–	–
Cc1cc(Cl)ccc1OCC(=O)Oc1c(Cl)c(Cl)c(Cl)c(Cl)c1Cl	62.9	78 µM	47.2 µM	79.5	–	51.9 µM	92.1 µM	61.7	> 100	53.8 µM	–	–	–	–	–	–	–	–	–	–
CC(C)NCCCNC1=C(Cl)C(=O)c2ccccc2C1=O	25.1	3.56 µM	27.4 µM	5.16	4.61 µM	16.4 µM	–	19.2	3.92	27.6 µM	12.2 µM	2.05 µM	12.8	3.96	–	3.48 µM	2.16	1.87	13.8	2.33
C=C(C)[C@@H]1CC[C@]2(C)[C@H](CC=C3[C@@H]4CC(C)(C)CC[C@]4(C(=O)OC)CC[C@]32C)[C@@]1(C)CC/C(N)=N/O	4.48	6.54 µM	20.6 µM	6.09	5.25 µM	4.03 µM	7.23 µM	6.57	5.57	–	2.05 µM	2.09 µM	–	1.89	2.16 µM	1.95 µM	2.3	2.46	4.44	2.05
C#Cc1cccc(N2C(=O)CC(=P(c3ccccc3)(c3ccccc3)c3ccccc3)C2=O)c1	> 100	> 100 µM	> 100 µM	–	> 100 µM	> 100 µM	> 100 µM	63.2	> 100	> 100 µM	–	–	–	–	–	–	–	–	–	–
O=c1cc(-c2ccccc2)oc2cc(OCc3cn(Cc4ccc(F)cc4)nn3)cc(O)c12	> 100	> 100 µM	21.7 µM	> 100	> 100 µM	–	–	> 100	–	> 100 µM	42 µM	> 100 µM	3.51	–	–	> 100 µM	–	> 100	3.76	17.6
CCCC(=O)C(CC)/C(CCC(=O)N(Cc1ccccc1)Cc1ccccc1)=N/NC(=O)C[N+](C)(C)C (stereo not drawn)	> 100	> 100 µM	> 100 µM	> 100	> 100 µM	> 100 µM	> 100 µM	–	> 100	> 100 µM	–	–	–	–	–	–	–	–	–	–
